Results as given in ChEMBL document CHEMBL1201862, “PubChem BioAssay data set” (2004).
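Test compounds were applied to cells in 96-well plates for 48 hours at 5 doses. The concentration for 50% growth inhibition is given as GI50.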 Active and inactive are the calls of the source. Rule as the data show it: active = GI50 up to about 1.1 µM and inactive = higher.

Legend:
Assay in all cases: DTP human tumour cell line panel, 48 h
UACC-257 = system: UACC-257
RPMI-8226 = system: RPMI-8226
OVCAR-4 = system: OVCAR-4
EKVX = system: EKVX
OVCAR-5 = system: OVCAR-5
OVCAR-8 = system: OVCAR-8
HOP-62 = system: HOP-62
SK-MEL-5 = system: SK-MEL-5
MOLT-4 = system: MOLT-4
NCI-H23 = system: NCI-H23
LOX IMVI = system: LOX IMVI
K562 = system: K562
SK-OV-3 = system: SK-OV-3
HT-29 = system: HT-29
CAKI-1 = system: CAKI-1
NCI-H226 = system: NCI-H226
SN12C = system: SN12C
KM12 = system: KM12
SK-MEL-2 = system: SK-MEL-2
COLO 205 = system: COLO 205

SMILES | GI50 (UACC-257) | GI50 (RPMI-8226) | GI50 (OVCAR-4) | GI50 (EKVX) | GI50 (OVCAR-5) | GI50 (OVCAR-8) | GI50 (HOP-62) | GI50 (SK-MEL-5) | GI50 (MOLT-4) | GI50 (NCI-H23) | GI50 (LOX IMVI) | GI50 (K562) | GI50 (SK-OV-3) | GI50 (HT-29) | GI50 (CAKI-1) | GI50 (NCI-H226) | GI50 (SN12C) | GI50 (KM12) | GI50 (SK-MEL-2) | GI50 (COLO 205)
O=C1c2ccccc2-c2nnc(-c3ccc([N+](=O)[O-])cc3)cc21 | > 10 µM (inactive) | > 10 µM (inactive) | > 10 µM (inactive) | > 10 µM (inactive) | > 10 µM (inactive) | > 10 µM (inactive) | > 10 µM (inactive) | > 10 µM (inactive) | > 10 µM (inactive) | > 10 µM (inactive) | > 10 µM (inactive) | > 10 µM (inactive) | > 10 µM (inactive) | > 10 µM (inactive) | > 10 µM (inactive) | > 10 µM (inactive) | > 10 µM (inactive) | > 10 µM (inactive) | > 10 µM (inactive) | > 10 µM (inactive)
Cc1c(N=NN(C)C)cc[n+]([O-])c1C | > 100 µM (inactive) | > 100 µM (inactive) | > 100 µM (inactive) | > 100 µM (inactive) | > 100 µM (inactive) | > 100 µM (inactive) | > 100 µM (inactive) | > 100 µM (inactive) | > 100 µM (inactive) | > 100 µM (inactive) | > 100 µM (inactive) | > 100 µM (inactive) | > 100 µM (inactive) | > 100 µM (inactive) | > 100 µM (inactive) | > 100 µM (inactive) | > 100 µM (inactive) | > 100 µM (inactive) | > 100 µM (inactive) | > 100 µM (inactive)
O=C1Oc2ccc([N+](=O)[O-])cc2N/C1=C\C(=O)c1ccccc1 | > 100 µM (inactive) | > 100 µM (inactive) | > 100 µM (inactive) | > 100 µM (inactive) | > 100 µM (inactive) | > 100 µM (inactive) | > 100 µM (inactive) | > 100 µM (inactive) | > 100 µM (inactive) | > 100 µM (inactive) | > 100 µM (inactive) | > 100 µM (inactive) | > 100 µM (inactive) | > 100 µM (inactive) | > 100 µM (inactive) | > 100 µM (inactive) | 62.1 µM (inactive) | 55.1 µM (inactive) | 27.9 µM (inactive) | 97.5 µM (inactive)
C=C/C(C)=C/[C@H](C)C(=O)C[C@H](O)CC1CC(=O)NC(=O)C1 | 30.1 µM (inactive) | 31.8 µM (inactive) | 19.6 µM (inactive) | 24.1 µM (inactive) | 58.9 µM (inactive) | 24.2 µM (inactive) | 19.2 µM (inactive) | 34.5 µM (inactive) | 19.8 µM (inactive) | 36.9 µM (inactive) | 43.1 µM (inactive) | 43.4 µM (inactive) | > 41.9 µM (inactive) | 34 µM (inactive) | 13.6 µM (inactive) | 41 µM (inactive) | 25.5 µM (inactive) | 32.7 µM (inactive) | 28.9 µM (inactive) | 34.1 µM (inactive)
C=C1OC(=O)[C@]2([C@@H](/C=C/C)C=CC(=O)[C@H]2O)[C@@H]1O | > 100 µM (inactive) | > 100 µM (inactive) | > 100 µM (inactive) | > 100 µM (inactive) | > 100 µM (inactive) | > 100 µM (inactive) | > 100 µM (inactive) | > 100 µM (inactive) | > 100 µM (inactive) | > 100 µM (inactive) | > 100 µM (inactive) | > 100 µM (inactive) | > 100 µM (inactive) | > 100 µM (inactive) | > 100 µM (inactive) | > 100 µM (inactive) | > 100 µM (inactive) | > 100 µM (inactive) | > 100 µM (inactive) | > 100 µM (inactive)
CN1CC=C(c2cccn2C)CC1 | > 100 µM (inactive) | > 100 µM (inactive) | > 100 µM (inactive) | > 100 µM (inactive) | > 100 µM (inactive) | > 100 µM (inactive) | > 100 µM (inactive) | > 100 µM (inactive) | > 100 µM (inactive) | > 100 µM (inactive) | > 100 µM (inactive) | > 100 µM (inactive) | > 100 µM (inactive) | > 100 µM (inactive) | > 100 µM (inactive) | > 100 µM (inactive) | > 100 µM (inactive) | > 100 µM (inactive) | > 100 µM (inactive) | > 100 µM (inactive)
O=c1ccn(CC2(CO)CC(Cc3ccccc3)C2)c(=O)[nH]1 (stereo not given) | > 100 µM (inactive) | > 100 µM (inactive) | > 100 µM (inactive) | > 100 µM (inactive) | > 100 µM (inactive) | > 100 µM (inactive) | > 100 µM (inactive) | > 100 µM (inactive) | > 100 µM (inactive) | > 100 µM (inactive) | > 100 µM (inactive) | > 100 µM (inactive) | > 100 µM (inactive) | > 100 µM (inactive) | > 100 µM (inactive) | > 100 µM (inactive) | > 100 µM (inactive) | > 100 µM (inactive) | > 100 µM (inactive) | > 100 µM (inactive)
CCCCOP(C)(=O)C(NC(=O)OCC)(C(F)(F)F)C(F)(F)F (stereo not given) | > 100 µM (inactive) | > 100 µM (inactive) | > 100 µM (inactive) | > 100 µM (inactive) | > 100 µM (inactive) | > 100 µM (inactive) | > 100 µM (inactive) | > 100 µM (inactive) | > 100 µM (inactive) | > 100 µM (inactive) | > 100 µM (inactive) | > 100 µM (inactive) | > 100 µM (inactive) | > 100 µM (inactive) | > 100 µM (inactive) | > 100 µM (inactive) | > 100 µM (inactive) | > 100 µM (inactive) | > 100 µM (inactive) | > 100 µM (inactive)
O=c1cnn(C2OC(CO)C(O)C2O)c(=S)[nH]1 (stereo not given) | > 100 µM (inactive) | 0.993 µM (active) | > 100 µM (inactive) | > 100 µM (inactive) | > 78.3 µM (inactive) | 10.6 µM (inactive) | > 63.7 µM (inactive) | > 55.5 µM (inactive) | 0.938 µM (active) | > 94 µM (inactive) | 1.24 µM (inactive) | 0.589 µM (active) | > 100 µM (inactive) | 13.5 µM (inactive) | 2.55 µM (inactive) | > 100 µM (inactive) | > 82 µM (inactive) | 22.3 µM (inactive) | 20.4 µM (inactive) | 54.1 µM (inactive)
N/C(=N\O)N/N=C\c1cc([N+](=O)[O-])cc([N+](=O)[O-])c1O | 98.2 µM (inactive) | 16.5 µM (inactive) | > 96.2 µM (inactive) | > 100 µM (inactive) | > 30.5 µM (inactive) | 6.11 µM (inactive) | 4.22 µM (inactive) | 9.42 µM (inactive) | 10.2 µM (inactive) | 28.8 µM (inactive) | 2.99 µM (inactive) | 5.26 µM (inactive) | 25.5 µM (inactive) | 11.4 µM (inactive) | 5.66 µM (inactive) | 29.4 µM (inactive) | 24.2 µM (inactive) | 2.94 µM (inactive) | > 100 µM (inactive) | 15.3 µM (inactive)
O=C1C(Cl)=C(N2CCC[C@H]2CO)C(=O)c2c(O)ccc(O)c21 | 1.35 µM (inactive) | 0.379 µM (active) | 2.16 µM (inactive) | 9.16 µM (inactive) | > 10 µM (inactive) | 2.88 µM (inactive) | > 10 µM (inactive) | 1.73 µM (inactive) | 0.337 µM (active) | 2.29 µM (inactive) | 2.09 µM (inactive) | 0.425 µM (active) | > 10 µM (inactive) | 4.18 µM (inactive) | 1.66 µM (inactive) | > 10 µM (inactive) | 1.71 µM (inactive) | 4.34 µM (inactive) | 2.53 µM (inactive) | 1.77 µM (inactive)
C/C([O-])=C(/c1nc(-c2ccc([N+](=O)[O-])o2)no1)[n+]1cc(C)ccc1C | 11.9 µM (inactive) | 15.3 µM (inactive) | 25.1 µM (inactive) | 58.6 µM (inactive) | 21.8 µM (inactive) | 19.8 µM (inactive) | 22.7 µM (inactive) | 10.6 µM (inactive) | > 100 µM (inactive) | 12.1 µM (inactive) | 5.94 µM (inactive) | 0.692 µM (active) | 35.6 µM (inactive) | 9.79 µM (inactive) | 14.3 µM (inactive) | 15.7 µM (inactive) | 13.6 µM (inactive) | 5.82 µM (inactive) | 7.94 µM (inactive) | 6.08 µM (inactive)
COc1cc(C2c3cc4c(cc3[C@@H](Nc3cccc(C(C)=O)c3)C3COC(=O)[C@H]23)OCO4)cc(OC)c1O (stereo not given in full) | 1.05 µM (active) | 0.197 µM (active) | 6.17 µM (inactive) | 2.21 µM (inactive) | 2.1 µM (inactive) | 0.968 µM (active) | 0.122 µM (active) | 0.411 µM (active) | < 0.01 µM (active) | 0.264 µM (active) | 0.39 µM (active) | 0.536 µM (active) | 0.71 µM (active) | 1.1 µM (active) | 0.108 µM (active) | 0.236 µM (active) | 0.405 µM (active) | 1.59 µM (inactive) | 2.65 µM (inactive) | 1.86 µM (inactive)
O=C1Cc2c(-c3ccccc3)cc(-c3cccc(Cl)c3)nc2-c2ccccc2N1 | 6.32 µM (inactive) | 15.7 µM (inactive) | 1.5 µM (inactive) | 2.29 µM (inactive) | 6.19 µM (inactive) | 1.61 µM (inactive) | 1.38 µM (inactive) | 9.91 µM (inactive) | 20.1 µM (inactive) | 5.24 µM (inactive) | 2.04 µM (inactive) | 3.33 µM (inactive) | 1.86 µM (inactive) | 1.73 µM (inactive) | 1.82 µM (inactive) | 4.63 µM (inactive) | 1.26 µM (inactive) | 5.02 µM (inactive) | 8 µM (inactive) | 6.62 µM (inactive)
